Reference: US20100305076A1, “METHODS OF TREATMENT FOR ULCERATIVE COLITIS” (priority 2006, published 2010)

How the values were obtained:
Assay type in all cases: in vivo, human
[1] = Safety and tolerability in the phase III trials
Description: Data from subjects with mild to moderate UC are combined and analyzed from two phase III, multi-center, randomized, double-blind, controlled clinical trials of identical design assessing the safety and clinical efficacy of an increased dosage of 5-ASA.

[2] = system: moderate ulcerative colitis; assay: Two phase III randomized double-blind trials: overall improvement (treatment success) from baseline at week 6; conditions: for Overall improvement: all subjects with moderately active UC, Studies I and II
Description: Data from subjects with mild to moderate UC are combined and analyzed from two phase III, multi-center, randomized, double-blind, controlled clinical trials of identical design assessing the safety and clinical efficacy of an increased dosage of 5-ASA. The primary endpoint is the percentage of moderate UC subjects achieving overall improvement (i.e., treatment success) from baseline at week 6. This is defined as: (1) complete response (remission); complete resolution of signs and symptoms (stool frequency, rectal bleeding, Subject Functional Assessment (SFA) and sigmoidoscopy score) and a Physician's Global Assessment (PGA) of 0; or (2) partial response; improvement from baseline in the PGA score and improvement in at least one clinical assessment (stool frequency, rectal bleeding, SFA and sigmoidoscopy score) and no worsening in any of the other clinical assessments. […] Pre-specified subgroup analyses for fifty-four demographic and baseline characteristics are performed in subjects with moderately active disease (PGA score=2) to assess consistency of primary endpoint.

[3] = system: moderate ulcerative colitis; assay: Individual subject examples: PGA score and rectal bleeding
Description: The subject takes two tablets of the pharmaceutical in the morning and two tablets in the evening such that about 4.8 g/day of 5-ASA is delivered. […] The four tablets are taken in the morning so that 4.8 g/day of 5-ASA is delivered.

[4] = system: moderate ulcerative colitis; assay: Bayesian analysis of treatment success probability in men with moderate disease
Experimental: In addition, a Bayesian analysis is conducted to calculate the probability that treatment with the 4.8 g/day dose in men results in a higher success rate than treatment with the 2.4 g/day does. This type of analysis considers data from any previous studies conducted using either of the two dose levels. […] Using these prior distributions and Bayes analyses, the “posterior distribution” is calculated for each dose level based on the date obtained from previous studies.

[5] = Example 5: person previously treated with steroids, four 1.2 g delayed-release tablets once daily (4.8 g/day)
[6] = Example 6: person, two 1.2 g delayed-release tablets three times daily (7.2 g/day)
[7] = Example 4: non-smoking man, oral, two 1.2 g tablets twice daily

Compound: Nc1ccc(O)c(C(=O)O)c1 [mesalamine, 5-amino-2-hydroxybenzoic acid]
- Tolerability ([1]; 2.4 g/day (400 mg tablet)): well tolerated
- Tolerability / adverse events ([1]; 4.8 g/day (800 mg tablet), oral delayed-release): well tolerated with adverse events comparable to the 2.4 g/day (400 mg tablet) dose
- Safety profile of regimen ([1]; about 4.8 g/day vs 2.4 g/day regimen): comparable to that of the 2.4 g/day regimen
- Overall improvement ([2]; 2.4 g/day (400 mg tablet)): 58%
- Success Rate ([2]; 2.4 g/day, male, moderate disease, Study 1, primary analysis): 50.0%
- Success Rate ([2]; 2.4 g/day, male, moderate disease, Study 1, set-to-failure): 46.8%
- Success Rate ([2]; 2.4 g/day, male, moderate disease, Study 2, primary analysis): 48.8%
- Success Rate ([2]; 2.4 g/day, male, moderate disease, Study 2, set-to-failure): 47.7%
- Overall improvement at week 6 ([2]; 2.4 g/day, moderate UC, combined studies, female): 66%
- Overall improvement at week 6 ([2]; 2.4 g/day, moderate UC, combined studies, left-sided colitis): 56%
- Overall improvement at week 6 ([2]; 2.4 g/day, moderate UC, combined studies, male): 50%
- Overall improvement at week 6 ([2]; 2.4 g/day, moderate UC, combined studies, pancolitis): 55%
- Overall improvement at week 6 ([2]; 2.4 g/day, moderate UC, combined studies, previous steroid use: no): 62%
- Overall improvement at week 6 ([2]; 2.4 g/day, moderate UC, combined studies, previous steroid use: yes): 52%
- Overall improvement at week 6 ([2]; 2.4 g/day, moderate UC, combined studies, proctitis): 71%
- Overall improvement at week 6 ([2]; 2.4 g/day, moderate UC, combined studies, proctosigmoiditis): 56%
- Success Rate ([2]; 2.4 g/day, moderate female, bowel and blood and sig scores at least 2, Study 2, primary endpoint, week 6): 27%
- Success Rate ([2]; 2.4 g/day, moderate female, bowel and blood and sig scores at least 2, Study 2, set to failure, week 6): 27%
- Success Rate ([2]; 2.4 g/day, moderate female, bowel and blood and sig scores at least 2, combined studies, primary endpoint, week 6): 51%
- Success Rate ([2]; 2.4 g/day, moderate female, bowel and blood and sig scores at least 2, combined studies, set to failure, week 6): 49%
- Success Rate ([2]; 2.4 g/day, moderate female, steroid or (bowel and blood and sig), Study 1, primary endpoint, week 6): 55%
- Success Rate ([2]; 2.4 g/day, moderate female, steroid or (bowel and blood and sig), Study 1, set to failure, week 6): 51%
- Success Rate ([2]; 2.4 g/day, moderate female, steroid or (bowel and blood and sig), Study 2, primary endpoint, week 6): 33%
- Success Rate ([2]; 2.4 g/day, moderate female, steroid or (bowel and blood and sig), Study 2, set to failure, week 6): 31%
- Success Rate ([2]; 2.4 g/day, moderate female, steroid or (bowel and blood and sig), combined studies, primary endpoint, week 6): 46%
- Success Rate ([2]; 2.4 g/day, moderate female, steroid or (bowel and blood and sig), combined studies, set to failure, week 6): 43%
- Success Rate ([2]; 2.4 g/day, moderate female, steroid use, Study 1, primary endpoint, week 6): 43%
- Success Rate ([2]; 2.4 g/day, moderate female, steroid use, Study 1, set to failure, week 6): 41%
- Success Rate ([2]; 2.4 g/day, moderate female, steroid use, Study 2, primary endpoint, week 6): 38%
- Success Rate ([2]; 2.4 g/day, moderate female, steroid use, Study 2, set to failure, week 6): 33%
- Success Rate ([2]; 2.4 g/day, moderate female, steroid use, combined studies, primary endpoint, week 6): 41%
- Success Rate ([2]; 2.4 g/day, moderate female, steroid use, combined studies, set to failure, week 6): 38%
- Actual response rate ([2]; 2.4 g/day, women, moderate disease): exceeded 60%
- Overall improvement ([2]; 4.8 g/day (800 mg tablet)): 72%
- Success Rate ([2]; 4.8 g/day, female, moderate disease, Study 2, set-to-failure): 59.1%
- Success Rate ([2]; 4.8 g/day, male, moderate disease, Study 1, primary analysis): 75.5%
- Success Rate ([2]; 4.8 g/day, male, moderate disease, Study 1, set-to-failure): 74.1%
- Success Rate ([2]; 4.8 g/day, male, moderate disease, Study 2, primary analysis): 76.3%
- Success Rate ([2]; 4.8 g/day, male, moderate disease, Study 2, set-to-failure): 72.5%
- Overall improvement at week 6 ([2]; 4.8 g/day, moderate UC, combined studies, female): 69%
- Overall improvement at week 6 ([2]; 4.8 g/day, moderate UC, combined studies, left-sided colitis): 71%
- Overall improvement at week 6 ([2]; 4.8 g/day, moderate UC, combined studies, male): 76%
- Overall improvement at week 6 ([2]; 4.8 g/day, moderate UC, combined studies, pancolitis): 71%
- Overall improvement at week 6 ([2]; 4.8 g/day, moderate UC, combined studies, previous steroid use: no): 69%
- Overall improvement at week 6 ([2]; 4.8 g/day, moderate UC, combined studies, previous steroid use: yes): 79%
- Overall improvement at week 6 ([2]; 4.8 g/day, moderate UC, combined studies, proctitis): 77%
- Overall improvement at week 6 ([2]; 4.8 g/day, moderate UC, combined studies, proctosigmoiditis): 71%
- Success Rate ([2]; 4.8 g/day, moderate female, bowel and blood and sig scores at least 2, Study 1, primary endpoint, week 6): 81%
- Success Rate ([2]; 4.8 g/day, moderate female, bowel and blood and sig scores at least 2, Study 2, set to failure, week 6): 53%
- Success Rate ([2]; 4.8 g/day, moderate female, bowel and blood and sig scores at least 2, combined studies, primary endpoint, week 6): 76%
- Success Rate ([2]; 4.8 g/day, moderate female, steroid or (bowel and blood and sig), Study 1, primary endpoint, week 6): 75%
- Success Rate ([2]; 4.8 g/day, moderate female, steroid or (bowel and blood and sig), Study 2, primary endpoint, week 6): 73%
- Success Rate ([2]; 4.8 g/day, moderate female, steroid or (bowel and blood and sig), combined studies, primary endpoint, week 6): 74%
- Success Rate ([2]; 4.8 g/day, moderate female, steroid or (bowel and blood and sig), combined studies, set to failure, week 6): about 65%
- Success Rate ([2]; 4.8 g/day, moderate female, steroid use, Study 1, primary endpoint, week 6): 79%
- Success Rate ([2]; 4.8 g/day, moderate female, steroid use, Study 1, set to failure, week 6): 73%
- Success Rate ([2]; 4.8 g/day, moderate female, steroid use, Study 2, set to failure, week 6): 58%
- Success Rate ([2]; 4.8 g/day, moderate female, steroid use, combined studies, primary endpoint, week 6): 73%
- Difference in Proportions ([2]; 4.8 vs 2.4 g/day, female, moderate disease, Study 1, primary analysis): 2.3%
- Difference in Proportions ([2]; 4.8 vs 2.4 g/day, female, moderate disease, Study 1, set-to-failure): 3.0%
- Difference in Proportions ([2]; 4.8 vs 2.4 g/day, female, moderate disease, Study 2, primary analysis): 4.4%
- Difference in Proportions ([2]; 4.8 vs 2.4 g/day, female, moderate disease, Study 2, set-to-failure): −2.4%
- Difference in Proportions ([2]; 4.8 vs 2.4 g/day, male, moderate disease, Study 1, primary analysis): 25.5%
- Difference in Proportions ([2]; 4.8 vs 2.4 g/day, male, moderate disease, Study 1, set-to-failure): 27.3%
- Difference in Proportions ([2]; 4.8 vs 2.4 g/day, male, moderate disease, Study 2, primary analysis): 27.5%
- Difference in Proportions ([2]; 4.8 vs 2.4 g/day, male, moderate disease, Study 2, set-to-failure): 24.8%
- Observed differences in success rate between treatment groups ([2]; 4.8 vs 2.4 g/day, men, moderate disease): approximately 25%
- Difference in Proportions ([2]; 4.8 vs 2.4 g/day, women, moderate disease, bowel and blood and sigmoidoscopy scores each ≧2, Study 1, primary endpoint): 14%
- Difference in Proportions ([2]; 4.8 vs 2.4 g/day, women, moderate disease, bowel and blood and sigmoidoscopy scores each ≧2, Study 2, primary endpoint): 42%
- Difference in Proportions ([2]; 4.8 vs 2.4 g/day, women, moderate disease, history of steroid use or bowel and blood and sigmoidoscopy each ≧2, Study 1, primary endpoint): 20%
- Difference in Proportions ([2]; 4.8 vs 2.4 g/day, women, moderate disease, history of steroid use or bowel and blood and sigmoidoscopy each ≧2, Study 2, primary endpoint): 40%
- Difference in Proportions ([2]; 4.8 vs 2.4 g/day, women, moderate disease, history of steroid use, Study 1, primary endpoint): 36%
- Difference in Proportions ([2]; 4.8 vs 2.4 g/day, women, moderate disease, history of steroid use, Study 2, primary endpoint): 27%
- Benefit of 4.8 g/day versus 2.4 g/day therapy (FIG. 3) ([2]; by baseline disease activity, subjects having moderate UC): increased therapeutic benefits
- Benefit of 4.8 g/day versus 2.4 g/day therapy (FIG. 2) ([2]; former steroid users, moderate UC): increased therapeutic benefits
- 4.8 g/day group versus 2.4 g/day group across pre-specified subgroups ([2]; point estimates and 95% confidence intervals of differences, 54 subgroups): consistently superior
- Benefit of 4.8 g/day versus 2.4 g/day therapy (FIG. 1) ([2]; subjects under about 65 years of age, Caucasians, non-smokers, moderate UC): increased benefit
- Physician's Global Assessment (PGA) score [3, 5]: improves in comparison to baseline
- Rectal bleeding [3, 5]: reduced
- Probability that 4.8 g/day results in a higher success rate than 2.4 g/day (Bayesian analysis) [4]: 99.97%
- Probability of a successful treatment outcome (Bayesian analysis) ([4]; 2.4 g/day): 47.2%
- Probability of a successful treatment outcome (Bayesian analysis) ([4]; 4.8 g/day): 74.7%

Compound: O=C(O)CCNC(=O)c1ccc(/N=N/c2ccc(O)c(C(=O)O)c2)cc1 [balsalazide, (E)-5-[[4-[[(2-carboxyethyl)amino]carbonyl]phenyl]azo]-2-hydroxybenzoic acid]
- Physician's Global Assessment (PGA) score [3, 6]: improves in comparison to baseline
- Rectal bleeding [3, 6]: reduced

Compound: O=C(O)c1cc(N=Nc2ccc(O)c(C(=O)O)c2)ccc1O [olsalazine, 3,3′-dicarboxy-4,4′-dihydroxyazobenzene]
- Physician's Global Assessment (PGA) score [3, 7]: improves in comparison to baseline
- Rectal bleeding [3, 7]: reduces
